Drawing on patent publication EP0195496A2, “Use of xanthines in the treatment of proliferative skin disease” (BEECHAM GROUP PLC, priority 1985, dated 1986), this text covers Ki for 20 compounds.

Read-outs that look alike come from different tables or passages of the source.

The target of the assay is cyclic AMP phosphodierterase. As to the kind of experiment: cyclic AMP phosphodiesterase activity in rat gastrocnemius muscle homogenates (Dixon plot). The format is biochemical. As to conditions: homogenates of rat gastocnemius muscle, 0.31 uM cyclic AMP as substrate, Dixon plot extrapolation. How it is done: The activity of cyclic AMP phosphodierterase in homogenates of rat gastocnemius muscle was measured in the presence of various concentrations of compounds of formulae (I), (II), (III), (IV) or (V) using 0.31 uM cyclic AMP as substration. The reciprocal of the reaction rate was plotted on the y axis against the concentration of each compound on the x axis (Dixon plot). The apparent Ki value was estimated by extrapolating the steeper linear portion of the Dixon plot to the x axis and obtaining the negative intercept on the x axis.

Where [1] appears, read: compounds of formula (I), read-out: Apparent Ki value.
Setting [2] is: compounds of formula (III), read-out: Apparent Ki value.
The mark [3] stands for this setting: compounds of formula (II), read-out: Apparent Ki Value.

Turning to `CCCCn1c(=O)c2c(ncn2CC(C)=O)n(CC)c1=O` [formula (I) R^1=C4H9 R^2=C2H5 X=-CH2-], the Ki under setting [1] was 21 µM.

For `CCCCn1c(=O)c2c(ncn2CCCCC(C)=O)n(CCCC)c1=O` [formula (I) R^1=C4H9 R^2=C4H9 X=-(CH2)4-, 1,3-di-n-butyl-7-(5-oxohexyl)xanthine], under setting [1], the Ki was 14.1 µM.

Turning to `CCCn1c(=O)c2c(ncn2CCC(C)=O)n(CCC)c1=O` [formula (I) R^1=C3H7 R^2=C3H7 X=-(CH2)2-], under setting [1], the Ki is 27 µM.

With `CCCCn1c(=O)c2c(ncn2CCC(C)=O)n(CCCC)c1=O` [formula (I) R^1=C4H9 R^2=C4H9 X=-(CH2)2-, 1,3-di-n-butyl-7-(3-oxobutyl) xanthine], the Ki under setting [1] was 25 µM.

Regarding `CCCCn1c(=O)c2c(ncn2CC(C)=O)n(CCC)c1=O` [formula (I) R^1=C4H9 R^2=C3H7 X=-CH2-, 1-n-butyl 3-n-propyl-7-(2-oxopropyl) xanthine], the Ki under setting [1] was 2 µM.

With `CCCCn1c(=O)c2c(ncn2C(C)C(C)=O)n(CCCC)c1=O` (centres unmarked), the Ki under setting [1] is 30.1 µM.

For `CCCCn1c(=O)n(CCCCC(C)=O)c(=O)c2c1ncn2CC(C)=O` [formula (V) R^12=C4H9, 1-(5-oxohexyl)-3-n-butyl-7-(2-oxopropyl) xanthine], where the note is “compounds of formula (V), read-out: Apparent Ki value”, the Ki is 3.9 µM.

As for `CCCCn1c(=O)c2c(ncn2C(C)CC(C)=O)n(CCCC)c1=O` (centres unmarked), the Ki under setting [1] was 17.5 µM.

Turning to `CCCCn1c(=O)c2c(ncn2C(C)C(C)=O)n(CC)c1=O` (centres unmarked), the Ki under setting [1] was 24.8 µM.

With `CCCCn1c(=O)c2c(ncn2CC(C)(OC)OC)n(CCCC)c1=O` [1,3-di-n-butylxanthin-7-yl propan-2-one, dimethyl ketal], under setting [2], the Ki is 27 µM.

With `CCCCn1c(=O)c2c(ncn2CC(C)=O)n(CCCC)c1=S` [1,3-di-n-butyl-7-(2-oxopropyl)-2-thioxanthine], the Ki under setting [3] was 2.5 µM.

With `CCCCn1c(=S)c2c(ncn2CCC(C)=O)n(CC)c1=O`, under setting [3], the Ki is 22.9 µM.

As to `CCCCn1c(=O)c2c(ncn2CCCC(C)=O)n(CCCC)c1=O` [formula (I) R^1=C4H9 R^2=C4H9 X=-(CH2)3-], under setting [1], the Ki was 39 µM.

Take `CCCCn1c(=O)c2c(ncn2CC2(C)OCCO2)n(CC)c1=O`: the Ki under setting [2] is 45 µM.

As to `CCCCn1c(=O)c2c(ncn2CCC(C)=O)n(CC)c1=O` [formula (I) R^1=C4H9 R^2=C2H5 X=-(CH2)2-, 1-n-butyl 3-ethyl-7-(3-oxobutyl) xanthine], under setting [1], the Ki was 12 µM.

For `CC(=O)Cn1cnc2c1c(=O)n(C(C)C)c(=O)n2C(C)C` [1,3-di-iso-propyl-7-(2-oxopropyl) xanthine], under setting [1], the Ki is 6.1 µM.

Turning to `CCCCn1c(=S)c2c(ncn2CC(C)=O)n(CC)c1=O`, under setting [3], the Ki was 41 µM.

As for `CCCCn1c(=O)c2c(ncn2CC(C)=O)n(CCCC)c1=O` [formula (I) R^1=C4H9 R^2=C4H9 X=-CH2-, 1,3-di-n-butyl-7-(2-oxopropyl) xanthine], the Ki under setting [1] was 3.3 µM.

With `CCCCn1c(=O)c2c(ncn2CC2(C)OCCO2)n(CCCC)c1=O` [2-methyl-2-[(1,3-di-n-butylxanthin-7-yl)methyl]-1,3-di oxolane], the Ki under setting [2] was 29 µM.

`CCn1c(=O)c2c(ncn2CC2(C)OCCO2)n(CC)c1=O`: under setting [2], the Ki was 73 µM.
